Among the data in patent US20090082358A1, “Vanilloid receptor ligands and their use in treatments” (priority 2007, published 2009) are IC50 values, retold here.

The experiment deals with T1, human TRPM8 (Homo sapiens, UniProt Q7Z2W7).
T1 construct: expressed in transfected cells; host or cells: CHO cells, T-REx tetracycline-inducible expression system (Invitrogen), co-transfected with pcDNA3.1 aequorin
T1 sequence (Q7Z2W7 whole entry): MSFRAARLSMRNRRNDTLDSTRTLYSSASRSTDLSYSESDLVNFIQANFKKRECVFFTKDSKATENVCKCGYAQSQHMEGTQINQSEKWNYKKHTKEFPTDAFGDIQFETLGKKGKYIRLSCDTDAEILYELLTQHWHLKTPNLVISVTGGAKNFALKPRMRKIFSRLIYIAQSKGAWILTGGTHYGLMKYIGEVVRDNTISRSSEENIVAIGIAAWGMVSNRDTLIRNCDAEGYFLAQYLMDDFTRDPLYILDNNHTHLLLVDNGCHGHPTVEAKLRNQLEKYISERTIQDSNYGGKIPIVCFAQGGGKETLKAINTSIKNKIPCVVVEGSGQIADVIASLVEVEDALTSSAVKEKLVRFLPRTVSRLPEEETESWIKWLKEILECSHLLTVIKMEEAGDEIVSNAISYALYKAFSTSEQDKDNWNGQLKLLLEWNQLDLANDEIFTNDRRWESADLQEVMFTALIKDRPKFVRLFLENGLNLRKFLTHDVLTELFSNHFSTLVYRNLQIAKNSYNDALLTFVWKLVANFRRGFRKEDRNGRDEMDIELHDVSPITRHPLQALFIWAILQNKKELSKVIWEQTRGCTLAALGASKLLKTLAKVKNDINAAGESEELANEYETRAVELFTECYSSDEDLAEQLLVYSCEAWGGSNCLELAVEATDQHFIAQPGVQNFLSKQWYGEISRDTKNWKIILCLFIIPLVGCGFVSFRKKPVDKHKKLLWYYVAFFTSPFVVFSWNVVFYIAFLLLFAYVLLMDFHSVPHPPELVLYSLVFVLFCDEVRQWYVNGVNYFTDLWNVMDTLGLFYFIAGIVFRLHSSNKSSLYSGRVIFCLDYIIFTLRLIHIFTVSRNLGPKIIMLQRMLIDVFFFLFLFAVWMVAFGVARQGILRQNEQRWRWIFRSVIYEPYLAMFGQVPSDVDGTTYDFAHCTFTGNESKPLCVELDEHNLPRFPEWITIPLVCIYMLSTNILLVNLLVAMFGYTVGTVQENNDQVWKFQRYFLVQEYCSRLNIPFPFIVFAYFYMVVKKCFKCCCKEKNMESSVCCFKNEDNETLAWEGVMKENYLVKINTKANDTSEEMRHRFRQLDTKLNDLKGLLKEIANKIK
Kind of experiment: Luminescence readout assay for measuring intracellular calcium (aequorin), antagonism of cold buffer activation. The format is cell-based. The following applies: CHO cells expressing human TRPM8; activation by cold buffer (<10° C.). The method, then:
Luminescence readout assay for measuring intracellular calcium. Stable CHO cell lines expressing human TRPM8 were generated using tetracycline inducible T-REx™ expression system from Invitrogen, Inc (Carlsbad, Calif.). […] Twenty four hours before the assay, cells were seeded in 96-well plates and TRP channel expression was induced with 0.5 μg/ml tetracycline.
Background: Calcium assays in cells follow changes in intracellular calcium, usually with a dye or a luminescent sensor.
Turning to `C[C@@H]1Cc2cccnc2[C@H](c2ccc(C(F)(F)F)cc2)N1C(=O)Nc1ccc(F)cc1` (racemic) [Example 48, (6R,8)-N-(4-Fluorophenyl)-6-methyl-8-(4-(trifluoromethyl)phenyl)-5,6-dihydro-1,7-naphthyridine-7(8H)-carboxamide and (6S,8R)—N-(4-fluorophenyl)-6-methyl-8-(4-(trifluoromethyl)phenyl)-5,6-dihydro-1,7-naphthyridine-7(8H)-carboxamide], the IC50 (in general, the concentration that gives 50% inhibition) was < 5 µM.
With `C[C@@H]1CN(C(=O)Nc2ccc(F)cc2)[C@H](c2ccc(C(F)(F)F)cc2)c2ncccc21` (racemic) [Example 49, (5S,8R)—N-(4-Fluorophenyl)-5-methyl-8-(4-(trifluoromethyl)phenyl)-5,6-dihydro-1,7-naphthyridine-7(8H)-carboxamide and (5R,8S)—N-(4-fluorophenyl)-5-methyl-8-(4-(trifluoromethyl)phenyl)-5,6-dihydro-1,7-naphthyridine-7(8H)-carboxamide] the figure was < 5 µM; with `CCOC(=O)N1C=Cc2ncccc2C1c1ccc(C(F)(F)F)cc1` (stereo not shown) [Example 1, Ethyl 5-(4-(trifluoromethyl)phenyl)-1,6-naphthyridine-6(5H)-carboxylate], < 5 µM; with `CCOC(=O)N1C=Cc2cccnc2C1c1ccc(C(F)(F)F)cc1` (stereo not shown) [Example 5, Ethyl 8-(4-(trifluoromethyl)phenyl)-1,7-naphthyridine-7(8H)-carboxylate], < 5 µM.
Take `CCOC(=O)N1C=Cc2nccnc2C1c1ccc(C(F)(F)F)cc1` (stereo not shown) [Example 12, Ethyl 5-(4-(trifluoromethyl)phenyl)pyrido[3,4-b]pyrazine-6(5H)-carboxylate]: the IC50 is < 5 µM.
For the compound `COc1ccccc1NC(=O)N1CCc2cccnc2[C@H]1c1ccc(C(F)(F)F)cc1` [Example 20, (R)—N-(2-methoxyphenyl)-8-(4-(trifluoromethyl)phenyl)-5,6-dihydro-1,7-naphthyridine-7(8H)-carboxamide], the IC50 is < 5 µM.
With `O=C(Nc1ccccc1F)N1CCc2cccnc2[C@H]1c1ccc(C(F)(F)F)cc1` [Example 21, (R)—N-(2-fluorophenyl)-8-(4-(trifluoromethyl)phenyl)-5,6-dihydro-1,7-naphthyridine-7(8H)-carboxamide] the figure was < 5 µM; with `O=C(NCCc1ccccc1)N1CCc2cccnc2[C@H]1c1ccc(C(F)(F)F)cc1` [Example 22, (R)—N-phenethyl-8-(4-(trifluoromethyl)phenyl)-5,6-dihydro-1,7-naphthyridine-7(8H)-carboxamide], < 5 µM; with `O=C(Nc1ccc(Cl)cc1)N1CCc2cccnc2[C@H]1c1ccc(C(F)(F)F)cc1` [Example 23, (R)—N-(4-chlorophenyl)-8-(4-(trifluoromethyl)phenyl)-5,6-dihydro-1,7-naphthyridine-7(8H)-carboxamide], < 5 µM.
With `C[C@H](NC(=O)N1CCc2cccnc2[C@H]1c1ccc(C(F)(F)F)cc1)c1ccccc1` [Example 24, (R)—N—((S)-1-phenylethyl)-8-(4-(trifluoromethyl)phenyl)-5,6-dihydro-1,7-naphthyridine-7(8H)-carboxamide] the figure was < 5 µM; with `CN(C)c1ccc(NC(=O)N2CCc3cccnc3[C@H]2c2ccc(C(F)(F)F)cc2)cc1` [Example 25, (R)—N-(4-(dimethylamino)phenyl)-8-(4-(trifluoromethyl)phenyl)-5,6-dihydro-1,7-naphthyridine-7(8H)-carboxamide], < 5 µM; with `O=C(Nc1ccc(F)c(F)c1)N1CCc2cccnc2[C@H]1c1ccc(C(F)(F)F)cc1` [Example 26, (R)—N-(3,4-difluorophenyl)-8-(4-(trifluoromethyl)phenyl)-5,6-dihydro-1,7-naphthyridine-7(8H)-carboxamide], < 5 µM.
With `Cc1noc(C)c1NC(=O)N1CCc2cccnc2[C@H]1c1ccc(C(F)(F)F)cc1` [Example 27, (R)—N-(3,5-dimethylisoxazol-4-yl)-8-(4-(trifluoromethyl)phenyl)-5,6-dihydro-1,7-naphthyridine-7(8H)-carboxamide] the figure was < 5 µM; with `CC(C)(C)NC(=O)N1CCc2cccnc2[C@H]1c1ccc(C(F)(F)F)cc1` [Example 28, (R)—N-tert-butyl-8-(4-(trifluoromethyl)phenyl)-5,6-dihydro-1,7-naphthyridine-7(8H)-carboxamide], < 5 µM; with `C[C@@H](NC(=O)N1CCc2cccnc2[C@H]1c1ccc(C(F)(F)F)cc1)c1ccccc1` [Example 29, (R)—N—((R)-1-phenylethyl)-8-(4-(trifluoromethyl)phenyl)-5,6-dihydro-1,7-naphthyridine-7(8H)-carboxamide], < 5 µM.
For the compound `O=C(Nc1ccccn1)N1CCc2cccnc2[C@H]1c1ccc(C(F)(F)F)cc1` [Example 30, (R)—N-(pyridin-2-yl)-8-(4-(trifluoromethyl)phenyl)-5,6-dihydro-1,7-naphthyridine-7(8H)-carboxamide], the IC50 was < 5 µM.
Under `O=C(Nc1ccc(-c2ccccc2)cc1)N1CCc2cccnc2[C@H]1c1ccc(C(F)(F)F)cc1` [Example 31, (R)—N-(4-biphenyl)-8-(4-(trifluoromethyl)phenyl)-5,6-dihydro-1,7-naphthyridine-7(8H)-carboxamide] stands < 5 µM; under `O=C(NCc1ccccc1)N1CCc2cccnc2[C@H]1c1ccc(C(F)(F)F)cc1` [Example 32, (R)—N-benzyl-8-(4-(trifluoromethyl)phenyl)-5,6-dihydro-1,7-naphthyridine-7(8H)-carboxamide], < 5 µM; under `O=C(Nc1cccc(F)c1)N1CCc2cccnc2[C@H]1c1ccc(C(F)(F)F)cc1` [Example 33, (R)—N-(3-fluorophenyl)-8-(4-(trifluoromethyl)phenyl)-5,6-dihydro-1,7-naphthyridine-7(8H)-carboxamide], < 5 µM.
As for `COc1ccc(NC(=O)N2CCc3cccnc3[C@H]2c2ccc(C(F)(F)F)cc2)cc1` [Example 35, (R)—N-(4-methoxyphenyl)-8-(4-(trifluoromethyl)phenyl)-5,6-dihydro-1,7-naphthyridine-7(8H)-carboxamide], the IC50 was < 5 µM.
With `O=C(N[C@H]1C[C@H]1c1ccccc1)N1CCc2cccnc2[C@H]1c1ccc(C(F)(F)F)cc1` [Example 36, (R)—N-((1S,2S)-2-phenylcyclopropyl)-8-(4-(trifluoromethyl)phenyl)-5,6-dihydro-1,7-naphthyridine-7(8H)-carboxamide] the figure was < 5 µM; with `O=C(Nc1ccc2c(c1)OCO2)N1CCc2cccnc2[C@H]1c1ccc(C(F)(F)F)cc1` [Example 37, (R)—N-(benzo[d][1,3]dioxol-5-yl)-8-(4-(trifluoromethyl)phenyl)-5,6-dihydro-1,7-naphthyridine-7(8H)-carboxamide], < 5 µM; with `CC(C)NC(=O)N1CCc2nccnc2[C@H]1c1ccc(C(F)(F)F)cc1` [Example 38, (R)—N-Isopropyl-5-(4-(trifluoromethyl)phenyl)-7,8-dihydropyrido[3,4-b]pyrazine-6(5H)-carboxamide], < 5 µM.
Under `O=C(Nc1cccnc1)N1CCc2nccnc2[C@H]1c1ccc(C(F)(F)F)cc1` [Example 39, (R)—N-(Pyridin-3-yl)-5-(4-(trifluoromethyl)phenyl)-7,8-dihydropyrido[3,4-b]pyrazine-6(5H)-carboxamide] stands < 5 µM; under `O=C(Nc1ccc(C(F)(F)F)cc1)N1CCc2cccnc2[C@H]1c1ccc(C(F)(F)F)cc1` [Example 40, (R)—N,8-Bis(4-(trifluoromethyl)phenyl)-5,6-dihydro-1,7-naphthyridine-7(8H)-carboxamide], < 5 µM; under `N#Cc1ccccc1NC(=O)N1CCc2cccnc2[C@H]1c1ccc(C(F)(F)F)cc1` [Example 41, (R)—N-(2-Cyanophenyl)-8-(4-(trifluoromethyl)phenyl)-5,6-dihydro-1,7-naphthyridine-7(8H)-carboxamide], < 5 µM.
With `N#Cc1cccc(NC(=O)N2CCc3cccnc3[C@H]2c2ccc(C(F)(F)F)cc2)c1` [Example 42, (R)—N-(3-Cyanophenyl)-8-(4-(trifluoromethyl)phenyl)-5,6-dihydro-1,7-naphthyridine-7(8H)-carboxamide] the figure was < 5 µM; with `O=C(OCc1ccccc1)N1C=Cc2cccnc2C1c1ccc(C(F)(F)F)cc1` (stereo not shown) [Example 43, Benzyl 8-(4-(trifluoromethyl)phenyl)-1,7-naphthyridine-7(8H)-carboxylate], < 5 µM; with `CCOC(=O)N1C=Cc2cccnc2C1c1ccc(F)cc1` (stereo not shown) [Example 44, Ethyl 8-(4-fluorophenyl)-1,7-naphthyridine-7(8H)-carboxylate], < 5 µM.
For the compound `CCOC(=O)N1CCc2cccnc2C1c1ccc(F)cc1` (stereo not shown) [Example 45, Ethyl 8-(4-fluorophenyl)-5,6-dihydro-1,7-naphthyridine-7(8H)-carboxylate], the IC50 was < 5 µM.
With `O=C(Nc1ccc(F)cc1)N1CCc2cccnc2C1c1ccc(F)cc1` (stereo not shown) [Example 46, N,8-Bis(4-fluorophenyl)-5,6-dihydro-1,7-naphthyridine-7(8H)-carboxamide] the figure was < 5 µM.
With `O=C(Nc1ccc(F)cc1)N1CCc2cccnc2C1c1ccc(-c2ccccc2)cc1` (stereo not shown) [Example 47, N-(4-Fluorophenyl)-8-(4-biphenyl)-5,6-dihydro-1,7-naphthyridine-7(8H)-carboxamide] the figure was < 5 µM; with `O=C(Nc1ccc(F)cc1)N1CCc2c(-c3ccc(F)cc3)ccnc2[C@H]1c1ccc(C(F)(F)F)cc1` [Example 54, (R)—N,4-bis(4-fluorophenyl)-8-(4-(trifluoromethyl)phenyl)-5,6-dihydro-1,7-naphthyridine-7(8H)-carboxamide], < 5 µM; with `Cc1ccnc2c1CCN(C(=O)Nc1ccc(F)cc1)[C@@H]2c1ccc(C(F)(F)F)cc1` [Example 55, (R)—N-(4-fluorophenyl)-4-methyl-8-(4-(trifluoromethyl)phenyl)-5,6-dihydro-1,7-naphthyridine-7(8H)-carboxamide], < 5 µM.
